Experimental findings from US12006503B2, “Fusion proteins and methods thereof” (The Trustees of Columbia University in the City of New York, priority 2012, dated 2024) are described below.

The test system of test [1] is Rat1. Briefly: Soft agar colony assay, Rat1 cells. The format is cell-based, rat. Conditions: Rat1 cells transduced with the construct. The text has this: FGFR1-TACC1 and FGFR3-TACC3 induce anchorage-independent growth in Rat1A fibroblasts. The number of soft agar colonies was scored from triplicate samples 14 days after plating. Representative microphotographs are shown.

The test system of test [2] is Ink4A;Arf-/- astrocytes in immunodeficient mice. Briefly: Subcutaneous tumor xenograft formation by lentivirus-transduced Ink4A;Arf-/- astrocytes. The format is in vivo, mouse. The text has this:
FIG. 3B are photomicrographs showing of immunofluoresence staining of tumors from mice injected with Ink4A; Arf−/− astrocytes expressing FGFR3-TACC3 showing positivity for glioma-specific (Nestin, Oig2 and GFAP) and proliferation markers (Ki67 and pHH3). Sub-cutaneous tumors were generated by Ink4A; Arf−/− astrocytes expressing FGFR-TACC fusions.
Subcutaneous xenografts and drug treatment. […] For experiments with FGFR inhibitors, mice carrying ˜200-300 mm 3 subcutaneous tumors derived from Ink4A; Arf−/− astrocytes were randomized to receive 50 mg/kg PD173074 in 0.05 M lactate buffer (pH 5) or an equal volume of lactate buffer by oral gavage. Treatment was administered for three cycles consisting of four consecutive days followed by two days of rest. […] Data are expressed as mean±SE.

In test [3] the test system is Rat1A cells and Ink4A;Arf-/- astrocytes. The test is described as follows: Quantitative analysis of chromosome segregation defects in mitoses. The format is cell-based. The text has this: Quantitative analysis of metaphase spreads for chromosome segregation defects in Ink4A; ARF−/− astrocytes expressing vector control or FGFR3-TACC3 (upper panel). Microscope imaging analysis of chromosome segregation defects in Ink4A; Arf−/− astrocytes expressing FGFR3-TACC3 or vector control. Representative images of cells with chromosome missegregation. Arrows point to chromosome misalignments, lagging chromosomes and chromosome bridges.
Confocal microscopy imaging. For immunofluorescence of fixed cells, images were recorded with a Z-optical spacing of 0.25 μm using a Nikon AIR MP and a 60×1.3 oil objective and analyzed using ImageJ software (National Institute of Health). For live-cell analyses, Rat1A cells infected with pLNCX-H2B retrovirus and transduced with lentiviral vector or FGFR3-TACC3 fusion were seeded in glass bottom dishes in phenol red free DMEM and followed by time-lapse microscopy using the Nikon AIR MP biostation at 37° C. and 5% CO2/95% air. Images with a Z-optical spacing of 1 μm were recorded every 4 min for 8 h. Images of unchallenged mitosis from early prophase until cytokinesis were processed using ImageJ software (National Institute of Health). The time-point of nuclear envelope breakdown (NEB) was defined as the first frame showing loss of smooth appearance of chromatin and anaphase was the first frame when chromosome movement towards the poles became apparent. […]

In test [1], “FGFR1-TACC1: fusion protein in which the TK domain of FGFR1 is fused upstream of the TACC domain of TACC1 (SEQ ID NO: 150)” displayed a soft agar colonies of 225.3 ± 10.0. Also, the “mice with tumors after subcutaneous injection of astrocytes expressing the fusion protein” value in test [2] (Ink4A;Arf-/- astrocytes, immunodeficient mice) is 100%. Also, the “Subcutaneous tumor xenografts (tumors formed/injections)” value in test [2] (Ink4Arf-/- astrocytes expressing the construct) is given as 8/8. Besides, the “increase of chromosomal segregation errors versus control cells” value in test [3] is “three to five fold increase”.
